Reference: patent US12234245B2, “Sulfonimidamide compounds as inhibitors of interleukin-1 activity” (Genentech, Inc., priority 2018, dated 2025)
Like-named read-outs stand apart in the source and are kept apart here.

Experiments:
Type in all cases: cell-based
NLRP3 inflammasome [1] = molecular target: T1, NLRP3 inflammasome (Homo sapiens, UniProt Q96P20); assay: NLRP3 inflammasome activation assay in PBMCs, IL-1β release (ELISA / HTRF); parameters: were freshly isolated from human peripheral blood from healthy donors; StemCells Technologies; host or cells: primary human PBMCs, LPS-primed, nigericin-stimulated; settings: LPS primed
T1 sequence (Q96P20 whole entry): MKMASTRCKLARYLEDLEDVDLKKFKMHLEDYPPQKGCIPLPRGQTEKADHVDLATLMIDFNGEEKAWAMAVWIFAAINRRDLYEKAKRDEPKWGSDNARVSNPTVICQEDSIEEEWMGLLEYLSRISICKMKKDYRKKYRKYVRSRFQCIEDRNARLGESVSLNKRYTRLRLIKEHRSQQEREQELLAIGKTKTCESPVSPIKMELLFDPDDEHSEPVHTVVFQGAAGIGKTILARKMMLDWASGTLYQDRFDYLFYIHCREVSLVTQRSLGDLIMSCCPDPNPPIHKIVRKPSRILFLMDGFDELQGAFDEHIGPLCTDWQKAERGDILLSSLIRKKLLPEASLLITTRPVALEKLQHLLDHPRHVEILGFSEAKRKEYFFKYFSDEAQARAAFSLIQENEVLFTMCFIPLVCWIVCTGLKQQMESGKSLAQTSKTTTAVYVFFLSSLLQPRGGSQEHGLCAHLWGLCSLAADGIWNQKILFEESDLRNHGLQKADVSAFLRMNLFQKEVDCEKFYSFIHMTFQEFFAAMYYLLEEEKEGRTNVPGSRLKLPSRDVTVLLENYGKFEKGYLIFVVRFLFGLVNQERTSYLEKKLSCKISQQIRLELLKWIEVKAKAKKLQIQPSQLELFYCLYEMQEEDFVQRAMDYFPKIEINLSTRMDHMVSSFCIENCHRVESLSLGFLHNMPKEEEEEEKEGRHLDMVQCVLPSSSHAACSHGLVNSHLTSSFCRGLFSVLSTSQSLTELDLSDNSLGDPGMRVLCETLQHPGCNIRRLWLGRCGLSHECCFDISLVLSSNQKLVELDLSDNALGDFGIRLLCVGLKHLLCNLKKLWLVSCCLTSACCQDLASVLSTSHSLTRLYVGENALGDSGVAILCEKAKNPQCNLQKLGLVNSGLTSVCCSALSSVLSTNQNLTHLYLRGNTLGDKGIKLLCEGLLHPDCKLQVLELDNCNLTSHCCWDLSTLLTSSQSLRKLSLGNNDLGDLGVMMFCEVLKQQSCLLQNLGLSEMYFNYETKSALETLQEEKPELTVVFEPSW
In short: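 Human PBMCs primed with 100 ng/mL LPS for 3 h, pre-treated with compound for 30 min (0.00017–10 µM, or from 40 µM in 2-fold 20-point series), then stimulated with 10 µM nigericin for 1.5 h at 37 °C. Released IL-1β in supernatant quantified by ELISA or by HTRF (665/620 ratio, overnight RT).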

Kupffer cells = assay: CTG (CellTiter-Glo) viability assay in Kupffer cells; settings: human Kupffer cells
Description: (§1) Human Kupffer cells (KCs), specialized liver macrophages residing in […], were obtained by gradient isolation from liver specimens harvested post-mortem by Samsara Sciences. Cells were obtained through an IRB approved donor program by Samsara Sciences and all donors tested negative for bacterial and viral infections.
(§2) Fresh or cryopreserved PMBCs were seeded in V-bottom 96-well plate at 0.5-1×10^5 cells per well and incubated overnight at 37° C. with 5% CO2 in RPMI 1640 medium with GlutaMAX supplement, 4.5 g/L D-glucose, 10% Fetal Bovine Serum (FBS), […] Sodium Pyruvate, 1% Penicillin/Streptomycin, 10 mM HEPES and 0.05 mM of β-mercaptoethanol. Freshly isolated or cryopreserved KCs cells were seeded in flat-bottom 96-well plates at 0.6-1.5×10^5 cells/well and incubated overnight at 37° C. 5% CO2 in RPMI 1640 Medium with GlutaMAX supplement, FBS, 1% Penicillin/Streptomycin and 10 mM HEPES. The following day, the cells were primed with 100 ng/mL of lipopolysaccharides (LPS; Sigma Aldrich) in FBS-free RPMI 1640 for 3 h. After the priming step, the media was removed and PBMCs were pre-incubated with serial concentrations of test compounds (0.00017-10 uM) or vehicle (DMSO) for 30 min in FBS-free media prior to addition of the NLRP3 activator. Cells were then stimulated with 10 uM Nigericin (Sigma Aldrich; InvivoGen) for 1.5 h. Plates were centrifuged at 1,500 rpm for 3 minutes to pellet cells and supernatant was transferred into new plates for subsequent experiments.
(§3) Viability of compound treated cells was measured using CellTiter-Glo® assay (Promega, Madison, Wis.) that measures the ATP content of cells which is proportional to the number of live cells within a well. This is a counter-screen to establish that the reduction of IL-1β levels in LPS and nigericin stimulated and compound treated cells is not due to cytotoxicity, but rather through the inhibition of the inflammasome pathway. Compounds inhibiting NRLP3 inflammasome activation ultimately increase the viability of LPS and nigericin stimulated cells by blocking NLRP3 mediated pyroptosis that would otherwise lead to cell lysis.

PBMCs = assay: CTG (CellTiter-Glo) viability assay in PBMCs; settings: LPS and nigericin stimulated
Description: (§4) Human peripheral blood mononuclear cells (PBMCs), consisting of lymphocytes (T, B and NK cells), monocytes and dendritic cells, were freshly isolated from human peripheral blood from healthy donors. Cells were obtained through an IRB approved donor program by iXCells Biotechnologies where all the donors were tested for bacterial and viral infections. Cells were purified from peripheral blood using ficoll gradient centrifugation.
as §2, §3

NLRP3 inflammasome [2] = molecular target: T1, NLRP3 inflammasome; assay: NLRP3 inflammasome activation assay in Kupffer cells, IL-1β release; parameters: were freshly isolated from human peripheral blood from healthy donors; StemCells Technologies; host or cells: primary human PBMCs, LPS-primed, nigericin-stimulated; settings: LPS primed, nigericin
Text: Some of the following assays were used to determine the inhibitory activity of the compounds on the NLRP3 inflammasome using a common inflammasome activation stimuli—nigericin.
as §1, §2
(§5) For ELISA assays cells were seeded into 96-well plates. Post study, supernatants were removed and the levels of mature IL-1β, IL18 and TNFα (Quantikine ELISA, R&D systems) were measured in cell conditioned media by ELISA according to manufacturer's instructions.

NLRP3 inflammasome [3] = molecular target: T1, NLRP3 inflammasome; assay: THP-1 ASC-GFP speck assay; parameters: host or cells: THP-1 ASC-GFP cells, PMA-differentiated, LPS-primed, nigericin-stimulated; settings: THP-1 ASC-GFP cells, PMA differentiated, LPS primed, 10 μM nigericin; read-out: THP1 ASC Speck IC50
In short: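 PMA-differentiated (500 ng/ml, overnight) THP-1 ASC-GFP cells primed with 1 μg/mL LPS for 3 h, preincubated 30 min with compound (top 40 μM, 2-fold, 20 points), then stimulated with 10 μM nigericin for 90 min at 37 °C. After fixation and Hoechst staining, imaging gave the percentage of cells bearing a GFP ASC speck.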

TNFα [4] = assay: TNFα counter-screen in LPS and nigericin stimulated PBMCs; settings: human PBMCs
Description: as §4, §2, §5
(§6) TNFα levels of LPS and nigericin stimulated cells were measured by HTRF assay (Cisbio, Bedford, MA). […] Measuring TNFalpha production also serves as a technical counter-screen to eliminate compounds that interfere with the HTRF reagents. Thus compounds that inhibit both IL-1β and TNFα levels are triaged for either being non-selective for inflammasome or interfering with the HTRF readout.

TNFα [5] = assay: TNFα counter-screen in LPS and nigericin stimulated Kupffer cells; settings: human Kupffer cells
Description: as §1, §2, §5, §6

[6] = 10 uM nigericin, read-out: PBMC IL-1 β IC50
[7] = 10 μM nigericin, read-out: PBMC IL-1β IC50
[8] = human PBMCs, read-out: PBMC CTG IC50

IC50 (NLRP3 inflammasome [1]; [6]) [µM]	IC50 (NLRP3 inflammasome [1]; [7]) [µM]	IC50 (NLRP3 inflammasome [3]) [µM]	SMILES	IC50 (PBMCs; Homo sapiens, PBMC) [µM]	IC50 (TNFα [4]; PBMC) [µM]	IC50 (PBMCs; [8]) [µM]	IC50 (TNFα [4]; read-out: PBMC TNF α IC50) [µM]	other results
< 0.1			NS(=O)(=NC(=O)Nc1c2c(cc3c1CCC3)CCC2)c1cnn2c1OCCC2 (stereo not drawn)	0.1 to 1				IC50 (Kupffer cells): 0.1 to 1 µM; IC50 (NLRP3 inflammasome [2]; read-out: Kupffer IL-β B IC50): 0.1 to 1 µM
	0.082		NS(=O)(=NC(=O)Nc1c2c(cc3c1CCC3)CCC2)c1cnn2c1OCCC2 (racemic) [Example 1, N′-((1,2,3,5,6,7-hexahydro-s-indacen-4-yl)carbamoyl)-6,7-dihydro-5H-pyrazolo[5,1-b][1,3]oxazine-3-sulfonimidamide]	0.3				IC50 (Kupffer cells): 0.103 µM; IC50 (NLRP3 inflammasome [2]; read-out: Kupffer IL-1 β IC50): 0.123 µM
	0.035	0.075	NS(=O)(=NC(=O)Nc1c2c(cc3c1CCC3)CCC2)c1cnn2c1OCCC2 (single isomer, unassigned) [Example 13]		> 10	0.008		
	1.91	1.2	NS(=O)(=NC(=O)Nc1c2c(cc3c1CCC3)CCC2)c1cnn2c1OCCC2 (single isomer, unassigned) [Example 14]			0.001		IC50 (TNFα [4]; read-out: PBMC TNFα IC50): > 10 µM
	1.12	0.64	COC1COc2c(S(N)(=O)=NC(=O)Nc3c4c(cc5c3CCC5)CCC4)cnn2C1 (single isomer, unassigned) [Example 19]		> 10	0.86		
	0.004		COC1COc2c(S(N)(=O)=NC(=O)Nc3c4c(cc5c3CCC5)CCC4)cnn2C1 (single isomer, unassigned) [Example 20]			0.019		IC50 (Kupffer cells): < 0.1 µM; IC50 (TNFα [5]): > 10 µM; IC50 (TNFα [4]; read-out: PBMC TNFα IC50): > 10 µM; IC50 (NLRP3 inflammasome [2]; read-out: Kupffer IL-1 β IC50): < 0.1 µM
	0.0076	0.0097	CNC1COc2c(S(N)(=O)=NC(=O)Nc3c4c(cc5c3CCC5)CCC4)cnn2C1 (single isomer, unassigned) [Example 26]		> 10	0.002		IC50 (Kupffer cells): 0.021 µM; IC50 (TNFα [5]): > 10 µM; IC50 (NLRP3 inflammasome [2]; read-out: Kupffer IL-1 β IC50): 0.02 µM

Continued, molecule first:

SMILES	IC50 (NLRP3 inflammasome [1]; [6]) [µM]	IC50 (NLRP3 inflammasome [1]; [7]) [µM]	IC50 (NLRP3 inflammasome [3]) [µM]	IC50 (PBMCs; Homo sapiens, PBMC) [µM]	IC50 (TNFα [4]; PBMC) [µM]	IC50 (PBMCs; [8]) [µM]	IC50 (TNFα [4]; read-out: PBMC TNF α IC50) [µM]	other results
NS(=O)(=NC(=O)Nc1c2c(c(F)c3c1CCC3)CCC2)c1cnn2c1OCC2 (racemic) [Example 29, N′-((8-fluoro-1,2,3,5,6,7-hexahydro-s-indacen-4-yl)carbamoyl)-2,3-dihydropyrazolo[5,1-b]oxazole-7-sulfonimidamide]		0.094	0.14	3.75	> 10			
NS(=O)(=NC(=O)Nc1c2c(c(F)c3c1CCC3)CCC2)c1cnn2c1OCCCC2 (racemic) [Example 30, N′-((8-fluoro-1,2,3,5,6,7-hexahydro-s-indacen-4-yl)carbamoyl)-5,6,7,8-tetrahydropyrazolo[5,1-b][1,3]oxazepine-3-sulfonimidamide]		0.067	0.36	> 10	> 10			
CNC1COc2c(S(N)(=O)=NC(=O)Nc3c(C(C)C)cc(F)cc3C(C)C)cnn2C1 (single isomer, unassigned) [Example 27]		0.12	0.2	> 10	> 10			
COC1COc2c(S(N)(=O)=NC(=O)Nc3c4c(c(F)c5c3CCC5)CCC4)cnn2C1 (single isomer, unassigned) [Example 31]		0.15	0.62		> 10	0.02		
COC1COc2c(S(N)(=O)=NC(=O)Nc3c4c(c(F)c5c3CCC5)CCC4)cnn2C1 (single isomer, unassigned) [Example 32]		0.013	0.045			0.005		IC50 (TNFα [4]; read-out: PBMC TNFα IC50): > 10 µM
CN(C)C1COc2c(S(N)(=O)=NC(=O)Nc3c4c(cc5c3CCC5)CCC4)cnn2C1 (single isomer, unassigned) [Example 33]		0.89	1.6	0.002	> 10			
CO[C@@H]1COc2c(S(=N)(=O)NC(=O)Nc3c4c(cc5c3CCC5)CCC4)cnn2C1 (stereo partly drawn) [drawing 668]	< 0.1					< 0.1	> 10	IC50 (Kupffer cells): < 0.1 µM; IC50 (TNFα [5]; read-out: Kupffer TNF α IC50): > 10 µM; IC50 (NLRP3 inflammasome [2]; read-out: Kupffer IL-β B IC50): < 0.1 µM
CO[C@@H]1COc2c(S(=N)(=O)NC(=O)Nc3c(C(C)C)cc(F)cc3C(C)C)cnn2C1 (stereo partly drawn) [drawing 671]	1 to 10					< 0.1	> 10	
CO[C@@H]1COc2c(S(=N)(=O)NC(=O)Nc3c(C(C)C)cc(F)cc3C(C)C)cnn2C1 (stereo partly drawn) [drawing 672]	0.1 to 1					0.1 to 1	> 10	
CN[C@@H]1COc2c(S(=N)(=O)NC(=O)Nc3c4c(cc5c3CCC5)CCC4)cnn2C1 (stereo partly drawn) [drawing 674]	< 0.1					< 0.1	> 10	IC50 (Kupffer cells): < 0.1 µM; IC50 (TNFα [5]; read-out: Kupffer TNF α IC50): > 10 µM; IC50 (NLRP3 inflammasome [2]; read-out: Kupffer IL-β B IC50): < 0.1 µM
CO[C@@H]1COc2c(S(=N)(=O)NC(=O)Nc3c4c(c(F)c5c3CCC5)CCC4)cnn2C1 (stereo partly drawn) [drawing 679]	0.1 to 1					< 0.1	> 10	
CO[C@@H]1COc2c(S(=N)(=O)NC(=O)Nc3c4c(c(F)c5c3CCC5)CCC4)cnn2C1 (stereo partly drawn) [drawing 680]	< 0.1					< 0.1	> 10	
CN(C)[C@@H]1COc2c(S(=N)(=O)NC(=O)Nc3c4c(cc5c3CCC5)CCC4)cnn2C1 (stereo partly drawn) [drawing 681]	0.1 to 1			< 0.1				IC50 (TNFα [4]; PBMC, read-out: PBMC TNF α IC50): > 10 µM
CN(C)[C@@H]1COc2c(S(=N)(=O)NC(=O)Nc3c4c(cc5c3CCC5)CCC4)cnn2C1 (stereo partly drawn) [drawing 682]	< 0.1					< 0.1	> 10	
